Laboratory results published in patent publication US10000452B1, “Quinolone-based compounds, formulations, and uses thereof” (University of South Florida, priority 2016, dated 2018).
≈ marks a conversion by molar mass, not a printed value. Like-named read-outs stand apart in the source and are kept apart here.

Tests used:
[1] = lipophilicity log D at pH 7.4; format: physicochemical; details: octanol/water
From the text: (§1) Furthermore, to profile the properties of the piperazinyl-4(1H)-quinolones, and to identify potential limitations, aqueous solubility and lipophilicity log D were experimentally determined via LC/MS-based assays as described by the Manetsch laboratory previously^8,10,31,32 (Tables 9-12). Encouragingly, the piperazinyl-4(1H)-quinolones were much more soluble than the previously described phenoxyethoxy-4(1H)-quinolone analogues.^19 As expected, the solubility of all compounds was affected by pH, with better solubility under more acidic conditions.
(§2) In parallel to testing the compounds for in vitro antimalarial activity, a limited structure-property relationship (SPR) study focusing on log D and aqueous solubility was conducted to assess potential physiochemical liabilities (FIG. 22). […] For these reasons, physicochemical properties were not strongly considered as selection criteria for in vivo efficacy studies.

[2] = system: malarial strain TM90-C2B (mefloquine, chloroquine, atovaquone, and pyrimethamine-resistant); experiment: microbe, parasite or virus in culture; format: cell-based, P. falciparum; details: for EC50: Plasmodium falciparum, TM90, read-out: EC50 TM90-C2B (nM); for RI: RI = EC50 TM90-C2B/EC50 W2
From the text: Ideally, the RI of a compound should lie between 0.3 and 3.0 in order to avoid rapidly inducing resistance in the parasite. […]

[3] = system: J774 mammalian cells; experiment: cytotoxicity to J774 cells; format: cell-based; details: Mus musculus, J774, read-out: EC50 J774 (μM)
Procedure: This allowed a simplified method for comparing the different assays being simultaneously run. Additionally, each compound was also tested for cytotoxicity using mammalian J774 cell lines in a 96-well plate format.^12-14, 16

[4] = system: P. berghei sporozoites expressing luciferase; experiment: in vitro liver stage activity, luciferase sporozoites infecting HEPG2 hepatoma cells; format: cell-based; details: Plasmodium berghei
[5] = aqueous solubility (LC/MS- or HPLC-based assay); format: physicochemical
From the text: as §1, §2

[6] = system: malarial strain W2 (pyrimethamine and chloroquine-resistant); experiment: in vitro antimalarial activity against multidrug resistant strain W2; format: cell-based, P. falciparum; details: Plasmodium falciparum
[7] = system: Pb-infected mice; experiment: in vivo efficacy scouting assay against blood stages; design: species or system P. berghei; mice; details: for activities in these scout assays: result in words; for inhibition in vivo at 50 mg/kg: Plasmodium berghei, 144 h, read-out: % Inhibition Day 6 PI
Procedure: The screening involved a single oral 50 mg/kg dose 1 day post infection (PI) and an assessment of parasitemia on days 3 PI and 6 PI (Table 6).
The screening was performed by treating two infected mice with a single 50 mg/kg oral dose of test compound suspended in PEG400 on day 1 postexposure (PE) followed by assessing parasitemia on days 3 and 6 PE.

[8] = aqueous medium, pH 2, simulated gastric fluid, pH 2.0, read-out: Solubility pH 2.0
[9] = aqueous medium, pH 6.5, aqueous buffer, pH 6.5, read-out: Solubility pH 6.5
[10] = single oral 50 mg/kg dose 1 day PI
[11] = single oral 50 mg/kg dose 1 day PI, vs untreated animals
[12] = aqueous solution, pH 2, simulated gastric fluid, pH 2.0, read-out: Solubility pH 2.0
[13] = aqueous solution, pH 6.5, aqueous buffer, pH 6.5, read-out: Solubility pH 6.5
[14] = aqueous solution (buffer not named), pH 2, simulated gastric fluid, pH 2.0, read-out: Solubility pH 2.0
[15] = aqueous solution (buffer not named), pH 6.5, aqueous buffer, pH 6.5, read-out: Solubility pH 6.5

Structure (SMILES) | chromatographic logD [1] | EC50 [2] [nM] | EC50 [3] [µM] | EC50 ([4]; HEPG2 cells) [pM] | solubility [5, 8] [µM] | solubility [5, 9] [µM] | EC50 ([6]; read-out: EC50 W2 (nM)) [nM] | % Inhibition Day 6 PI [7, 11] | RI [2] | solubility [5, 12] [µM] | solubility [5, 13] [µM] | further results
COC(=O)c1c[nH]c2cc(CCN3CCN(Cc4ccccc4)CC3)ccc2c1=O [Compound 8ad, Methyl 7-(2-(4-benzylpiperazin-1-yl)ethyl)-4-oxo-1,4-dihydroquinoline-3-carboxylate] | 1.72 | 6170 | > 20 | 157000 | ≥ 80 | ≥ 80 | 116 | – | – | – | – | –
COC(=O)c1c[nH]c2cc(CN3CCN(c4ccccc4)CC3)c(OC)cc2c1=O [Compound 8w, Methyl 6-methoxy-4-oxo-7-((4-phenylpiperazin-1-yl)methyl)-1,4-dihydroquinoline-3-carboxylate] | 1.32 | 493 | > 20 | 113000 | ≥ 80 | ≥ 80 | 1.62 | 82.4% | – | – | – | activities in these scout assays [7, 10]: excellent activities
COC(=O)c1c[nH]c2cc(CN3CCN(c4ccc(C(F)(F)F)cc4)CC3)ccc2c1=O [Compound 8p, Methyl 4-oxo-7-((4-(4-(trifluoromethyl)phenyl)piperazin-1-yl)methyl)-1,4-dihydroquinoline-3-carboxylate] | 3.23 | 122 | 10.7 | 15600 | – | – | 0.315 | completely inhibited parasite growth | 387 | ≥ 80 | 1 to 19.9 (≈ 0.445 to 8.86 µg/mL) | inhibition in vivo at 50 mg/kg ([7]; po): > 85%; activities in these scout assays [7, 10]: excellent activities; % Inhibition Day 3 PI [7, 11]: full inhibition
COC(=O)c1c[nH]c2cc(CN3CCN(c4ccc(F)cc4)CC3)c(C)cc2c1=O [Compound 8u, Methyl 7-((4-(4-fluorophenyl)piperazin-1-yl)methyl)-6-methyl-4-oxo-1,4-dihydroquinoline-3-carboxylate] | 2.9 | 348 | 15.7 | 2640 | – | – | 0.843 | – | – | ≥ 80 | 40 to 59.9 (≈ 16.4 to 24.5 µg/mL) | EC50 ([6]; read-out: EC50 W2): 0.843 nM
COC(=O)c1c[nH]c2cc(CN3CCN(c4ccc(OC)cc4)CC3)c(OC)cc2c1=O [Compound 8z, Methyl 6-methoxy-7-((4-(4-methoxyphenyl)piperazin-1-yl)methyl)-4-oxo-1,4-dihydroquinoline-3-carboxylate] | 2.19 | 861 | 15.7 | 10400 | – | – | 3.38 | 70.6% | – | ≥ 80 | ≥ 80 | activities in these scout assays [7, 10]: excellent activities
COC(=O)c1c[nH]c2cc(N3CCN(Cc4ccccc4)CC3)c(C)cc2c1=O [Compound 8g, Methyl 7-(4-benzylpiperazin-1-yl)-6-methyl-4-oxo-1,4-dihydroquinoline-3-carboxylate] | 2.37 | 982 | > 20 | > 100000 | ≥ 80 | ≥ 80 | 13.2 | – | 74.4 | – | – | –
COC(=O)c1c[nH]c2cc(CN3CCN(c4ccc(OC)cc4)CC3)ccc2c1=O [Compound 8n, Methyl 7-((4-(4-methoxyphenyl)piperazin-1-yl)methyl)-4-oxo-1,4-dihydroquinoline-3-carboxylate] | 2.11 | 222 | – | 123 | – | – | 3.56 | little to moderate protection | – | ≥ 80 | 40 to 59.9 (≈ 16.3 to 24.4 µg/mL) | EC50 ([4]; HepG2, text values printed in pM): 123 pM
COC(=O)c1c[nH]c2cc(CN3CCN(c4ccc(OC)cc4)CC3)c(C)cc2c1=O [Compound 8t, Methyl 7-((4-(4-methoxyphenyl)piperazin-1-yl)methyl)-6-methyl-4-oxo-1,4-dihydroquinoline-3-carboxylate] | 2.61 | 177 | > 20 | 4110 | – | – | 0.575 | – | 308 | ≥ 80 | 20 to 39.9 (≈ 8.43 to 16.8 µg/mL) | –
COC(=O)c1c[nH]c2cc(N3CCN(c4ccc(OC)cc4)CC3)c(OC)cc2c1=O [Compound 8f, Methyl 6-methoxy-7-(4-(4-methoxyphenyl)piperazin-1-yl)-4-oxo-1,4-dihydroquinoline-3-carboxylate] | 2.48 | 1980 | > 20 | > 100000 | – | – | 42.9 | – | 46.2 | 60 to 79.9 (≈ 25.4 to 33.8 µg/mL) | 20 to 39.9 (≈ 8.47 to 16.9 µg/mL) | –
COC(=O)c1c[nH]c2cc(N3CCN(c4ccccc4)CC3)ccc2c1=O [Compound 8a, Methyl 4-oxo-7-(4-phenylpiperazin-1-yl)-1,4-dihydroquinoline-3-carboxylate] | 2.58 | – | > 20 | 74100 | 1 to 19.9 (≈ 0.363 to 7.23 µg/mL) | – | 4.45 | little to moderate protection | – | – | – | –
COC(=O)c1c[nH]c2ccc(CN3CCN(c4ccccc4)CC3)cc2c1=O [Compound 8af, Methyl 4-oxo-6-((4-phenylpiperazin-1-yl)methyl)-1,4-dihydroquinoline-3-carboxylate] | 2.03 | 3200 | > 20 | 90500 | – | – | 151 | – | 21.2 | – | – | solubility [5, 14]: ≥ 80 µM; solubility [5, 15]: 20 to 39.9 µM (≈ 7.55 to 15.1 µg/mL)
COC(=O)c1c[nH]c2ccc(CN3CCN(c4ccc(C(F)(F)F)cc4)CC3)cc2c1=O [Compound 8ai, Methyl 4-oxo-6-((4-(4-(trifluoromethyl)phenyl)piperazin-1-yl)methyl)-1,4-dihydroquinoline-3-carboxylate] | 3.01 | 2900 | > 20 | 85000 | – | – | 45.2 | – | 64.2 | – | – | solubility [5, 14]: ≥ 80 µM; solubility [5, 15]: 1 to 19.9 µM (≈ 0.445 to 8.86 µg/mL)
COC(=O)c1c[nH]c2cc(N3CCN(Cc4ccccc4)CC3)ccc2c1=O [Compound 8b, Methyl 7-(4-benzylpiperazin-1-yl)-4-oxo-1,4-dihydroquinoline-3-carboxylate] | 2.21 | – | > 20 | 84500 | 60 to 80 (≈ 22.6 to 30.2 µg/mL) | 60 to 80 (≈ 22.6 to 30.2 µg/mL) | 16.2 | – | – | – | – | Solubility pH 2.0 (μM) ([5]; pH 2.0): 60-79.9 μM; Solubility pH 6.5 (μM) ([5]; pH 6.5): 60-79.9 μM; inhibition in vivo at 50 mg/kg [7, 11]: ~40%
